# In ChEMBL document CHEMBL1138078, “Antitumor activity of JS-K [O2-(2,4-dinitrophenyl) 1-[(4-ethoxycarbonyl)piperazin-1-yl]diazen-1-ium-1,2-diolate] and related O2-aryl diazeniumdiolates in vitro and in vivo” (J Med Chem, 2006):
# Experiments:
# HL-60 = experiment: Antiproliferative activity against human HL60 cell line; type: functional, cell-based
# [1] = tested on: Panel NCI-51 (51 carcinoma cell lines); experiment: Antiproliferative activity against human NCI51 cell line; type: functional
# JM1 = experiment: Antiproliferative activity against JM1 cell line implanted in Fischer rat liver assessed as decrease in tumor weight; type: functional, cell-based
# 786-0 = experiment: Antiproliferative activity against human 786-0 cell line at 100 uM; type: functional
# TK-10 = experiment: Antiproliferative activity against human TK10 cell line at 100 uM; type: functional
# CAKI-1 = experiment: Antiproliferative activity against human CAKI1 cell line at 100 uM; type: functional
SMILES,"IC50 (HL-60; Homo sapiens, HL-60) [µM]",also measured
CCN(CC)/[N+]([O-])=N\Oc1ccc([N+](=O)[O-])cc1C(F)(F)F,96,
CCOC(=O)N1CCN(/[N+]([O-])=N/Oc2ccc([N+](=O)[O-])cc2[N+](=O)[O-])CC1,0.5,GI50 [1]: 1.32 µM; TGI [1]: 6.61 µM; Activity (JM1): Dose-dependent effect
CN(c1cccc(C(=O)O)c1)c1cc(O/N=[N+](/[O-])N(C)C)c([N+](=O)[O-])cc1[N+](=O)[O-],12,
O=C(OCc1ccccc1)N1CCN(/[N+]([O-])=N\Oc2ccc([N+](=O)[O-])cc2[N+](=O)[O-])CC1,17,Activity (786-0): 100%; Activity (TK-10): 100%; Activity (CAKI-1): 100%; GI50 [1]: 7.08 µM; LC50 [1]: 77.6 µM; TGI [1]: 30.9 µM
CCN(CC)/[N+]([O-])=N\Oc1ccnc(SC)n1,> 100,
CCCOC(=O)N1CCN(/[N+]([O-])=N\Oc2ccc([N+](=O)[O-])cc2[N+](=O)[O-])CC1,3.7,"TGI (HL-60; Homo sapiens, HL-60): 8.1 µM; Activity (786-0): 100%; Activity (TK-10): 100%; Activity (CAKI-1): 100%; GI50 [1]: 2.04 µM; LC50 [1]: 40.7 µM; TGI [1]: 10.2 µM"
"O=[N+]([O-])c1ccc(O)c([N+](=O)[O-])c1 [2,4-DINITROPHENOL]",98,
CCCCOC(=O)N1CCN(/[N+]([O-])=N\Oc2ccc([N+](=O)[O-])cc2[N+](=O)[O-])CC1,3.5,"TGI (HL-60; Homo sapiens, HL-60): 57.5 µM; Activity (786-0): 100%; Activity (TK-10): 100%; Activity (CAKI-1): 100%; GI50 [1]: 6.31 µM; LC50 [1]: 63.1 µM; TGI [1]: 23.4 µM"
CCN(CC)/[N+]([O-])=N/Oc1ccc([N+](=O)[O-])cc1[N+](=O)[O-],2.2,
C1CNCCN1 [PIPERAZINE],83,
CNc1ccc(C(=O)Oc2cc(O/N=[N+](/[O-])N(C)C)c([N+](=O)[O-])cc2[N+](=O)[O-])cc1,6.3,
CN(C)/[N+]([O-])=N\Oc1ccc([N+](=O)[O-])cn1,> 100,
COc1ccc(N(C)c2cc(O/N=[N+](/[O-])N(C)C)c([N+](=O)[O-])cc2[N+](=O)[O-])cc1,> 100,
CCN(CC)/[N+]([O-])=N\Oc1ccccc1[N+](=O)[O-],> 100,
CCN(CC)/[N+]([O-])=N/Oc1cc(O/N=[N+](/[O-])N(CC)CC)c([N+](=O)[O-])cc1[N+](=O)[O-],1,
CCOC(=O)N1CCNCC1 [N-(ETHOXYCARBONYL)PIPERAZINE],8.6,
O=NO [SODIUM NITRITE],94,
CCN(CC)/[N+]([O-])=N\Oc1ccc([N+](=O)[O-])cc1,> 100,
CN(C)/[N+]([O-])=N/Oc1cc(Nc2cccc(C(=O)O)c2)c([N+](=O)[O-])cc1[N+](=O)[O-],10.1,
CCOC(=O)N1CCN(/[N+]([O-])=N/Oc2ccnc(Cl)n2)CC1,70,
O=[N+]([O-])c1ccc(Cl)c([N+](=O)[O-])c1 [DINITROCHLOROBENZENE],,IC50 (HL-60; hl-60): 1.4 µM
CCOC(=O)N1CCN(/[N+]([O-])=N\O)CC1,4,
N[C@@H](CCC(=O)N[C@H](CSc1ccc([N+](=O)[O-])cc1[N+](=O)[O-])C(=O)NCC(=O)O)C(=O)O,8.4,
CN(C)/[N+]([O-])=N\Oc1cc(F)c([N+](=O)[O-])cc1[N+](=O)[O-],3.5,
CN(C)/[N+]([O-])=N\Oc1cc(O)c([N+](=O)[O-])cc1[N+](=O)[O-],> 100,

# Further lines, with some results ahead:
"IC50 (HL-60; Homo sapiens, HL-60) [µM]",SMILES,also measured
8.8,CC(=O)NCC(=O)N1CCN(/[N+]([O-])=N\Oc2ccc([N+](=O)[O-])cc2[N+](=O)[O-])CC1,
0.8,CCOC(=O)N1CCN(/[N+]([O-])=N/Oc2cc(O/N=[N+](\[O-])N3CCN(C(=O)OC)CC3)c([N+](=O)[O-])cc2[N+](=O)[O-])CC1,
6.7,CN1CCN(/[N+]([O-])=N\Oc2ccc([N+](=O)[O-])cc2[N+](=O)[O-])CC1,
3.2,CC(C)Cc1ccc(C(C)C(=O)N2CCN(/[N+]([O-])=N\Oc3ccc([N+](=O)[O-])cc3[N+](=O)[O-])CC2)cc1 (stereo not given),
1,CCOC(=O)N1CCN(/[N+]([O-])=N/Oc2cc(F)c([N+](=O)[O-])cc2[N+](=O)[O-])CC1,
3.9,CC(=O)N1CCN(/[N+]([O-])=N\Oc2ccc([N+](=O)[O-])cc2[N+](=O)[O-])CC1,
9.1,CN(C)/[N+]([O-])=N\Oc1cc(Nc2ccc(C(=O)O)cc2)c([N+](=O)[O-])cc1[N+](=O)[O-],
7.3,CCN(CC)C(=O)N1CCN(/[N+]([O-])=N\Oc2ccc([N+](=O)[O-])cc2[N+](=O)[O-])CC1,
4.4,NC(=O)C1CCCN(/[N+]([O-])=N/Oc2ccc([N+](=O)[O-])cc2[N+](=O)[O-])C1 (stereo not given),
3.7,CC(=O)Oc1ccccc1C(=O)N1CCN(/[N+]([O-])=N\Oc2ccc([N+](=O)[O-])cc2[N+](=O)[O-])CC1,
7.3,O=C(c1cccnc1)N1CCN(/[N+]([O-])=N\Oc2ccc([N+](=O)[O-])cc2[N+](=O)[O-])CC1,
3.6,O=[N+]([O-])c1ccc(O/N=[N+](\[O-])N2CCN(c3ncccn3)CC2)c([N+](=O)[O-])c1,
7.4,O=[N+]([O-])c1ccc(O/N=[N+](\[O-])N2CCCC2)c([N+](=O)[O-])c1,
> 100,O=[N+]([O-])c1cc(C(F)(F)F)ccc1O/N=[N+](\[O-])N1CCN(c2ccccc2)CC1,
5.9,NC(=O)C1CCN(/[N+]([O-])=N/Oc2ccc([N+](=O)[O-])cc2[N+](=O)[O-])CC1,
8.1,CC(C)(C)OC(=O)N1CCN(/[N+]([O-])=N\Oc2ccc([N+](=O)[O-])cc2[N+](=O)[O-])CC1,
27,O=C(ON1C(=O)CCC1=O)N1CCN(/[N+]([O-])=N\Oc2ccc([N+](=O)[O-])cc2[N+](=O)[O-])CC1,
2.4,CN(C)/[N+]([O-])=N\Oc1ccc([N+](=O)[O-])cc1[N+](=O)[O-],
8,O=[N+]([O-])c1ccc(O/N=[N+](/[O-])N2CCN(c3ccccc3)CC2)nc1,
5,O=[N+]([O-])c1ccc(O/N=[N+](/[O-])N2CCNCC2)c([N+](=O)[O-])c1,
5.2,CN(C)S(=O)(=O)N1CCN(/[N+]([O-])=N\Oc2ccc([N+](=O)[O-])cc2[N+](=O)[O-])CC1,
1.5,O=[N+]([O-])c1ccc(O/N=[N+](/[O-])N2CCN(c3ccccc3)CC2)c([N+](=O)[O-])c1,
